The values below come from patent EP1306084A1, “Compositions for the control of parasitic infestations in fish” (Alpharma AS, priority 1998, dated 1999).

The test system of series [1] is sea lice. As to the kind of experiment: Oral hexaflumuron treatment of naturally sea lice infected salmon in sea cages (Example 1). The class given is in vivo, Atlantic salmon (Salmo salar). The settings on record: 9 mg per kg each day for 10 days. The protocol:
The treatment dosage was 9 mg hexaflumuron per kg fish per day for 10 days. This is indicated by "Groups/Timepoints" in the figure; • Figure 2 relates to the trial in Example 2 that was carried out on Atlantic salmon (Salmo salar). […] The treatment dosage varied between 3 - 9 mg hexaflumuron and 9- 12 mg fluazuron per kg fish per day for 7 days. This is indicated by "Groups/Timepoints" in the diagram. […] The treated groups are compared to an untreated control group. The treatment dosage was 4 mg hexaflumuron per kg fish per day for 5 days. This is indicated by "Groups/Timepoints" in the figure. Cage 2 = controls, Cage 4-6 = treated groups, 16.6.97 = time point for sea transfer and 5.8.97= controls treated by bathing with deltamethrin; • Figure 4 relates to the trial described in Example 5, which was carried out on sea trout (Salmo trutta). […] The treated groups are compared with an untreated control group. The dosage for oral treatment was 4 mg hexaflumuron per kilo fish per day for 5 days, and 5 ppm hexaflumuron as a 30 minute bath treatment. This is indicated by "Groups/Timepoints" in the figure. Cage 1.4 = Controls, cage 1.3 = Oral treatment, cage 1.2 = Bath treatment. […] The treated groups are compared with an untreated control group, and one group that has been treated orally with teflubenzuron (10 mg/kg of teflubenzuron per kg fish per day for 7 days). […]

Series [2] deals with sea lice. As to the kind of experiment: Oral or bath treatment in freshwater before sea transfer, sea lice counts after natural infestation (Example 6). Format: in vivo, Atlantic salmon (Salmo salar). The protocol: (§1) The treatment dosage was 9 mg hexaflumuron per kg fish per day for 10 days. This is indicated by "Groups/Timepoints" in the figure; • Figure 2 relates to the trial in Example 2 that was carried out on Atlantic salmon (Salmo salar). […] The treatment dosage varied between 3 - 9 mg hexaflumuron and 9- 12 mg fluazuron per kg fish per day for 7 days. This is indicated by "Groups/Timepoints" in the diagram. […] The treated groups are compared to an untreated control group. The treatment dosage was 4 mg hexaflumuron per kg fish per day for 5 days. This is indicated by "Groups/Timepoints" in the figure. Cage 2 = controls, Cage 4-6 = treated groups, 16.6.97 = time point for sea transfer and 5.8.97= controls treated by bathing with deltamethrin; • Figure 4 relates to the trial described in Example 5, which was carried out on sea trout (Salmo trutta). […] The treated groups are compared with an untreated control group. The dosage for oral treatment was 4 mg hexaflumuron per kilo fish per day for 5 days, and 5 ppm hexaflumuron as a 30 minute bath treatment. This is indicated by "Groups/Timepoints" in the figure. Cage 1.4 = Controls, cage 1.3 = Oral treatment, cage 1.2 = Bath treatment. […] The treated groups are compared with an untreated control group, and one group that has been treated orally with teflubenzuron (10 mg/kg of teflubenzuron per kg fish per day for 7 days). The dosage for oral treatment was 5.6 mg hexaflumuron per kg fish per day for 7 days, and 5 ppm hexaflumuron as a 30 minute bath treatment. […] End of treatment: 22.10.97, Sea transfer: 23.10.97. T1 = 3 weeks post end of treatment, T2 = 5 weeks post end of treatment, T3 = 9 weeks post end of treatment, T4 = 12 weeks post end of treatment; • Figure 6 relates to the trial in Example 6 at time points 4-6, with the same trial parameters as for Figure 5. T5 = 15 weeks post end of treatment, T6 = 17 weeks post end of treatment. Cage 3 and 4 were treated by bath with deltamethrin after sea lice counting at T4 (12.01.98); • Figure 7 relates to the trial described in Example 7 where salmon were injected on 17.12.97 with two formulations (groups L and R, respectively) of hexaflumuron and a vaccine formulation without hexaflumuron (control). […] The vaccinated fish was transferred to sea water on 09.01.98; • Figure 8 summarises the trial of Example 8 where salmon smolts were injected with 9 different active substances on 08.07.98. Only results for Moxidectin (Mox.), Lufenuron (Luf.) and hexaflumuron in Apoject 1-Fural (Hex.Apo) and in animal oil (Hex.oil) are shown, and • Figure 9 summarises the trial described in Example 10 where salmon were injected on 03.12.97 with 3 different formulations of hexaflumuron (Hexa 1, Hexa 2 and Hexa 3). The fish were transferred to sea water at T0.
About 400 Atlantic salmon (Salmo salar) of an average weight of 80 grams were divided into four groups of 100 fish in each. One group was given an oral treatment of 5.6 mg hexaflumuron per kg fish each day for 7 days before sea transfer. Group two was given a bath treatment with a dosage of 5 ppm (mg/l) hexaflumuron for 30 minutes with a formulation containing 10% hexaflumuron. Group three was given oral treatment with a daily dosage of 10 mg teflubenzuron per kg fish for 7 days, while the last group remained untreated. […] Every third week, lice from 10 fish in each cage were counted to assess if there was a difference in the number of lice between the cages. […]

The nature of series [3]: Chemical analysis of muscle/skin tissue after oral treatment (Example 6). The class given is in vivo, Atlantic salmon (Salmo salar). The settings on record: atlantic salmon, 5.6 mg/kg, five fish, read-out: average concentration of hexaflumuron in muscle/skin tissue. The protocol:
Two days after oral treatment had been completed and at timepoint 3 (65 days after completed medication), muscle/skin tissue from five fish in group 1 was chemically analysed to check the concentration of hexaflumuron. The average concentration of hexaflumuron two days after completed medication was 4.4 µg/g tissue. 65 days after, the average concentration level was 1.2 µg/g tissue.

The subject of series [4] is sea lice. As to the kind of experiment: Injection of 9 active substances, protective effect against sea lice (Example 8). Conditions: for lice on average: T3, 70 days after injection, about 50 mg/kg, control group 5.6. The class given is in vivo, salmon smolt. The protocol: as §1
In this trial 9 different active substances were tested for protective effect against sea lice. 1,200 salmon smolt were, prior the start of the trial, vaccinated with a commercial vaccine, ALPHA JECT 5100.
One week after sea water transfer the salmon was divided into 12 groups and injected with different formulations of the 9 different active substances. In parallel with the 12 groups, a 13th group comprising 50 fish of the same origin and size was injected with a saline (PBS) solution without active substance. This group served as negative control/reference group in respect of sea lice infestations. The groups were marked by fin cutting and distributed randomly into 3 cages.
The active substances that were used as injection were hexaflumuron, buprofezin, diflubenzuron, fluazuron, lufenuron, ivermectin, doramectin, moxidectin and milbemycin oxime, respectively. All the fish were injected with 0.2 ml of the various injection formulations. Hexaflumuron, buprofezin, fluazuron, lufenuron and diflubenzuron were administered at a dosage of about 50 mg/kg whereas ivermectin, doramectin and moxidectin were administered at a dosage of 0.2 mg/kg (recommended dosage for mammals). […]

Series [5] can be described thus: Adverse or side effects observed over all trials. Format: in vivo, fish. Conditions: injection, bath solution or oral treatment; all dosages examined. An excerpt:
This is in regard to all the dosages that have been examined and the various administration methods which have been used.

Regarding `O=C(NC(=O)c1c(F)cccc1F)Nc1cc(Cl)c(OC(F)(F)C(F)F)c(Cl)c1` [hexaflumuron], the “reduction of sensitive chalimus and pre-adult stages” value in the series on sea lice [1] is on record as “about 95%”. Further, the “reduced the number of lice as compared to the control group” value with sea lice [1] (medicated pellets, 7.6 - 9.4°C) was “more than 90%”. Further, in the series with sea lice [2] (hexaflumuron oral or bath before sea transfer), the protection period result is given as “at least 11 weeks”. Moreover, the “number of lice larger than Chalimus II versus control” value with sea lice [2] (oral 5.6 mg per kg each day for 7 days or bath 5 ppm for 30 minutes, 5, 8 and 11 weeks (time points 2, 3 and 4)) is “significantly lower”. For the same compound, in series [3] (65 days after completed oral medication), the concentration at 1560 h was determined as 1200 ng/g. Further, the concentration at 48 h in series [3] (two days after completed oral medication (5.6 mg per kg, 7 days)) amounted to 4400 ng/g. The “protection against sea lice” value in the series with sea lice [4] (T2, 40 days after injection, hexaflumuron, lufenuron about 50 mg/kg, moxidectin 0.2 mg/kg) is reported as “showed protection”; with sea lice [4] (T3, hexaflumuron in an aqueous suspension (PBS)) it was “no protection”. Moreover, the lice on average in the series with sea lice [4] (formulated in Apoject 1-Fural) is recorded as 0; in the series with sea lice [4] (formulated in animal oil) it was 0.8. Besides, the “number of sea lice versus control group” value with sea lice [4] (T8 (218 days after injection), hexaflumuron in Apoject 1-Fural, animal oil) is recorded as “significantly lower”. Besides, the “significant protection against sea lice until and including T10, time after injection” value in the series with sea lice [4] (hexaflumuron formulated in Apoject 1-Fural or in animal oil) is recorded as 9 months. Also, in the series with sea lice [4] (two groups of fish injected with hexaflumuron), the “prophylactic effect against sea lice” value is no more than 10 months. For the same compound, the “adverse or side effects” value in series [5] was “No adverse or side effects have been observed”.
